Values after ≈ are worked out from the molar mass of the structure shown.
How the values were obtained:
[1] = system: Staphylococcus aureus UC 1128; test: serial dilution liquid medium MIC, Staphylococcus aureus UC 1128 pen-resistant; type: cell-based; conditions: UC1128; Staphylococcus aureus UC 1128 pen-resistant; 24 hours at 37° C.; read-out: minimum inhibiting concentration (MIC)
Description: (§1) The method was a serial dilution of liquid medium test wherein a series of tubes were prepared containing the same amount of sterile nutritive medium and increasing amounts of the test product was distributed in each tube. The tubes were then seeded with a bacterial strain and incubated for 24 hours in an oven at 37° C. The degree of inhibition was determined by transillumination to determine the minimum inhibiting concentration (MIC) express in μg/ml and the results are reported in the following Tables.

[2] = system: Staphylococcus aureus exp. n° 54 146; test: serial dilution liquid medium MIC, Staphylococcus aureus exp. n° 54 146; type: cell-based; conditions: Staphylococcus aureus exp. 54 146; 24 hours at 37° C.; read-out: minimum inhibiting concentration (MIC)
Description: as §1

[3] = system: Streptococcus pyogenes A 561; test: serial dilution liquid medium MIC, Streptococcus pyogenes A 561; type: cell-based; conditions: A561, 24 hours at 37° C., read-out: minimum inhibiting concentration (MIC)
Description: as §1

[4] = system: Streptococcus faecalis 5432; test: serial dilution liquid medium MIC, Streptococcus faecalis 5432; type: cell-based; conditions: Enterococcus faecalis, 24 hours at 37° C., read-out: minimum inhibiting concentration (MIC)
Description: as §1

[5] = system: Streptococcus faecalis 99 F 74; test: serial dilution liquid medium MIC, Streptococcus faecalis 99 F 74; type: cell-based; conditions: Enterococcus faecalis, 99F74, 24 hours at 37° C., read-out: minimum inhibiting concentration (MIC)
Description: as §1

[6] = system: Staphylococcus aureus 1061; test: serial dilution liquid medium MIC, Staphylococcus aureus 1061 pen-sensibles; type: cell-based; conditions: 24 hours at 37° C., read-out: minimum inhibiting concentration (MIC)
Description: as §1

[7] = system: Streptococcus faecalis 5435; test: serial dilution liquid medium MIC, Streptococcus faecalis 5435; type: cell-based; conditions: Enterococcus faecalis, 24 hours at 37° C., read-out: minimum inhibiting concentration (MIC)
Description: as §1

[8] = system: Staphylococcus aureus No. 54,146; test: In vivo activity in mice experimentally infected with Staphylococcus aureus No. 54,146; conditions: groups of 10 mice
Description: The test was effected with the compounds of the invention and erythromycin as a reference on groups of 10 mice weighing about 21 g experimentally infected with Staphylococcus aureus No. 54,146 by intraperitoneal administration of 0.5 ml of a 22 hour culture of the said organism in bouillon with a pH of 7 diluted to 1/6 with physiological water. The test compounds were orally administrated to the mice 1,5 and 24 hours after the infection and the mortality on the 8th day was determined.

[9] = dose 0,5mg oral, 1,5 and 24 hours after infection
[10] = dose 0,25mg oral, 1,5 and 24 hours after infection
[11] = dose 0,75mg oral, 1,5 and 24 hours after infection

| SMILES | MIC [1] [mg/L] | MIC [2] [mg/L] | MIC [3] [mg/L] | MIC [4] [mg/L] | MIC [5] [mg/L] | MIC [6] [mg/L] | MIC [7] [mg/L] | No. of mice living on the 8th day [8, 9] [mice] | No. of mice living on the 8th day [8, 10] [mice] | No. of mice living on the 8th day [8, 11] [mice] | No. of mice living on the 8th day ([8]; dose 1mg oral, 1,5 and 24 hours after infection) [mice] |
| --- | --- | --- | --- | --- | --- | --- | --- | --- | --- | --- | --- |
| CC[C@H]1OC(=O)[C@H](C)[C@@H](O[C@H]2C[C@@](C)(OC)[C@@H](O)[C@H](C)O2)[C@H](C)[C@@H](O[C@@H]2O[C@H](C)C[C@H](N(C)C)[C@H]2O)[C@](C)(O)C[C@@H](C)C(=NOCC(=O)C(C)(C)C)[C@H](C)[C@@H](O)[C@]1(C)O [Example 15, 9-[0-(3,3-dimethyl-2-oxo-butyl)-oxime] of erythromycin] | 1 (≈ 1.18 µM) | 0.6 (≈ 0.708 µM) | 0.1 (≈ 0.118 µM) | 0.1 (≈ 0.118 µM) | 0.2 (≈ 0.236 µM) | 0.6 (≈ 0.708 µM) | 0.6 (≈ 0.708 µM) | 9 | 1 | 10 |  |
| CC[C@H]1OC(=O)[C@H](C)[C@@H](O[C@H]2C[C@@](C)(OC)[C@@H](O)[C@H](C)O2)[C@H](C)[C@@H](O[C@@H]2O[C@H](C)C[C@H](N(C)C)[C@H]2O)[C@](C)(O)C[C@@H](C)C(=NOCC(OC)OC)[C@H](C)[C@@H](O)[C@]1(C)O [Example 29, 9-[0-(2,2-dimethoxyethyl)-oxime] of erythromycin] | 1 (≈ 1.19 µM) | 0.4 (≈ 0.478 µM) | 0.1 (≈ 0.119 µM) | 0.4 (≈ 0.478 µM) | 0.2 (≈ 0.239 µM) | 0.4 (≈ 0.478 µM) | 1 (≈ 1.19 µM) | 8 | 2 | 9 | 10 |
| CC[C@H]1OC(=O)[C@H](C)[C@@H](O[C@H]2C[C@@](C)(OC)[C@@H](O)[C@H](C)O2)[C@H](C)[C@@H](O[C@@H]2O[C@H](C)C[C@H](N(C)C)[C@H]2O)[C@](C)(O)C[C@@H](C)C(=NOCC2OCCO2)[C@H](C)[C@@H](O)[C@]1(C)O [Example 30, 9-[0-{(1,3-dioxolan-2-yl)-methyl}-oxime] of erythromycin] | 0.6 (≈ 0.719 µM) | 0.4 (≈ 0.479 µM) | 0.05 (≈ 0.0599 µM) | 0.4 (≈ 0.479 µM) | 0.2 (≈ 0.24 µM) | 0.4 (≈ 0.479 µM) | 2 (≈ 2.4 µM) | 7 | 2 | 10 |  |
| CC[C@H]1OC(=O)[C@H](C)[C@@H](O[C@H]2C[C@@](C)(OC)[C@@H](O)[C@H](C)O2)[C@H](C)[C@@H](O[C@@H]2O[C@H](C)C[C@H](N(C)C)[C@H]2O)[C@](C)(O)C[C@@H](C)C(=NOCCN2CCCCC2)[C@H](C)[C@@H](O)[C@]1(C)O [Example 34, 9-[O-(2{-piperidin-1-yl}-ethyl)-oxime] of erythromycin] | 0.6 (≈ 0.698 µM) | 0.6 (≈ 0.698 µM) | ≤ 0.01 | 0.1 (≈ 0.116 µM) | 0.05 (≈ 0.0581 µM) | 0.4 (≈ 0.465 µM) | 0.2 (≈ 0.233 µM) |  |  |  |  |
| CC[C@H]1OC(=O)[C@H](C)[C@@H](O[C@H]2C[C@@](C)(OC)[C@@H](O)[C@H](C)O2)[C@H](C)[C@@H](O[C@@H]2O[C@H](C)C[C@H](N(C)C)[C@H]2O)[C@](C)(O)C[C@@H](C)C(=NOCCN2CCN(C)CC2)[C@H](C)[C@@H](O)[C@]1(C)O [Example 43, 9-[O-(2-{4-methyl-piperazino-1-yl}-ethyl)-oxime] of erythromycin] | 2 (≈ 2.29 µM) | 1 (≈ 1.14 µM) | ≤ 0.01 | 0.2 (≈ 0.229 µM) | 0.05 (≈ 0.0571 µM) | 1 (≈ 1.14 µM) | 0.4 (≈ 0.457 µM) |  |  |  |  |
| CC[C@H]1OC(=O)[C@H](C)[C@@H](O[C@H]2C[C@@](C)(OC)[C@@H](O)[C@H](C)O2)[C@H](C)[C@@H](O[C@@H]2O[C@H](C)C[C@H](N(C)C)[C@H]2O)[C@](C)(O)C[C@@H](C)C(=NOC(C)CN(CC)CC)[C@H](C)[C@@H](O)[C@]1(C)O (stereo partly drawn) [Example 46, 9-[O-(2-diethylamino-isopropyl)-oxime] of erythromycin] | 0.6 (≈ 0.696 µM) | 0.4 (≈ 0.464 µM) | ≤ 0.01 | 0.05 (≈ 0.058 µM) | 0.05 (≈ 0.058 µM) | 0.2 (≈ 0.232 µM) | 0.1 (≈ 0.116 µM) |  |  |  |  |

The next lines start with results.

| MIC [1] [mg/L] | MIC [2] [mg/L] | MIC [3] [mg/L] | MIC [4] [mg/L] | MIC [5] [mg/L] | MIC [6] [mg/L] | MIC [7] [mg/L] | SMILES | No. of mice living on the 8th day [8, 9] [mice] | No. of mice living on the 8th day [8, 10] [mice] | No. of mice living on the 8th day [8, 11] [mice] | No. of mice living on the 8th day ([8]; dose 1mg oral, 1,5 and 24 hours after infection) [mice] |
| --- | --- | --- | --- | --- | --- | --- | --- | --- | --- | --- | --- |
| 0.6 (≈ 0.743 µM) | 0.4 (≈ 0.496 µM) | 0.1 (≈ 0.124 µM) | 0.1 (≈ 0.124 µM) | 0.1 (≈ 0.124 µM) | 0.4 (≈ 0.496 µM) | 0.2 (≈ 0.248 µM) | CCOCON=C1[C@H](C)C[C@@](C)(O)[C@H](O[C@@H]2O[C@H](C)C[C@H](N(C)C)[C@H]2O)[C@@H](C)[C@H](O[C@H]2C[C@@](C)(OC)[C@@H](O)[C@H](C)O2)[C@@H](C)C(=O)O[C@H](CC)[C@@](C)(O)[C@H](O)[C@H]1C [Example 20, 9-[0-(ethoxymethyl)-oxime] of erythromycin] | 4 | 2 | 10 |  |
| 0.4 (≈ 0.504 µM) | 0.2 (≈ 0.252 µM) | 0.02 (≈ 0.0252 µM) | 0.1 (≈ 0.126 µM) | 0.1 (≈ 0.126 µM) | 0.1 (≈ 0.126 µM) | 0.2 (≈ 0.252 µM) | CC[C@H]1OC(=O)[C@H](C)[C@@H](O[C@H]2C[C@@](C)(OC)[C@@H](O)[C@H](C)O2)[C@H](C)[C@@H](O[C@@H]2O[C@H](C)C[C@H](N(C)C)[C@H]2O)[C@](C)(O)C[C@@H](C)C(=NOCOC)[C@H](C)[C@@H](O)[C@]1(C)O [Example 33, 9-[O-(methoxymethyl)-oxime] of erythromycin] | 10 | 7 |  |  |
| 0.6 (≈ 0.719 µM) | 0.4 (≈ 0.48 µM) | 0.01 (≈ 0.012 µM) | 0.05 (≈ 0.0599 µM) | ≤ 0.02 | 0.3 (≈ 0.36 µM) | 0.1 (≈ 0.12 µM) | CC[C@H]1OC(=O)[C@H](C)[C@@H](O[C@H]2C[C@@](C)(OC)[C@@H](O)[C@H](C)O2)[C@H](C)[C@@H](O[C@@H]2O[C@H](C)C[C@H](N(C)C)[C@H]2O)[C@](C)(O)C[C@@H](C)C(=NOCCNC(C)C)[C@H](C)[C@@H](O)[C@]1(C)O [Example 39, 9-[O-(2-isopropylamino)-oxime] of erythromycin] |  |  |  |  |
| 1 (≈ 1.26 µM) | 1 (≈ 1.26 µM) | ≤ 0.01 | 0.4 (≈ 0.505 µM) | 0.1 (≈ 0.126 µM) | 0.6 (≈ 0.758 µM) | 0.2 (≈ 0.253 µM) | CC[C@H]1OC(=O)[C@H](C)[C@@H](O[C@H]2C[C@@](C)(OC)[C@@H](O)[C@H](C)O2)[C@H](C)[C@@H](O[C@@H]2O[C@H](C)C[C@H](N(C)C)[C@H]2O)[C@](C)(O)C[C@@H](C)C(=NOCCN)[C@H](C)[C@@H](O)[C@]1(C)O [Example 45, 9-[O-(2-aminoethyl)-oxime] of erythromycin] |  |  |  |  |
| 0.4 (≈ 0.497 µM) | 0.4 (≈ 0.497 µM) | 0.05 (≈ 0.0621 µM) | 0.2 (≈ 0.248 µM) | 0.2 (≈ 0.248 µM) | 0.2 (≈ 0.248 µM) | 0.2 (≈ 0.248 µM) | CC[C@H]1OC(=O)[C@H](C)[C@@H](O[C@H]2C[C@@](C)(OC)[C@@H](O)[C@H](C)O2)[C@H](C)[C@@H](O[C@@H]2O[C@H](C)C[C@H](N(C)C)[C@H]2O)[C@](C)(O)C[C@@H](C)C(=NOCC2CO2)[C@H](C)[C@@H](O)[C@]1(C)O (stereo partly drawn) [Example 47, 9-[0-(oxiramylmethyl)-oxime] of erythromycin] |  |  |  |  |
| 0.6 (≈ 0.706 µM) | 0.6 (≈ 0.706 µM) | 0.05 (≈ 0.0588 µM) | 0.4 (≈ 0.471 µM) | 0.1 (≈ 0.118 µM) | 0.4 (≈ 0.471 µM) | 1 (≈ 1.18 µM) | CC[C@H]1OC(=O)[C@H](C)[C@@H](O[C@H]2C[C@@](C)(OC)[C@@H](O)[C@H](C)O2)[C@H](C)[C@@H](O[C@@H]2O[C@H](C)C[C@H](N(C)C)[C@H]2O)[C@](C)(O)C[C@@H](C)C(=NOCC(O)CN(C)C)[C@H](C)[C@@H](O)[C@]1(C)O (stereo partly drawn) [Example 48, 9-[0-(3-dimethylamino-2-hydroxy-propyl)-oxime] of erythromycin] |  |  |  |  |
